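The compound was tested at five concentrations on cells cultured in 96-well plates, with a 48-hour exposure period. Abbreviation: GI50, concentration required for 50% inhibition of growth.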 Calls of active or inactive are those of the source. No stated cut-off is given here; in the data, active = GI50 up to about 1.1 µM and inactive = higher.
Legend:
Assay in all cases: NCI tumour cell line growth inhibition, 48 h
HOP-92 = test system: HOP-92
DU-145 = test system: DU-145
SR = test system: SR
NCI-H23 = test system: NCI-H23
HL-60 = test system: HL-60
786-0 = test system: 786-0
CCRF-CEM = test system: CCRF-CEM
A498 = test system: A498
K562 = test system: K562
HOP-62 = test system: HOP-62
OVCAR-4 = test system: OVCAR-4
MDA-MB-231 = test system: MDA-MB-231
KM12 = test system: KM12
NCI-H226 = test system: NCI-H226
M14 = test system: M14
PC-3 = test system: PC-3
SK-OV-3 = test system: SK-OV-3
TK-10 = test system: TK-10
UACC-62 = test system: UACC-62
SF-539 = test system: SF-539
SF-295 = test system: SF-295
BT-549 = test system: BT-549
COLO 205 = test system: COLO 205
OVCAR-8 = test system: OVCAR-8
CAKI-1 = test system: CAKI-1
SNB-75 = test system: SNB-75
U-251 = test system: U-251
SW-620 = test system: SW-620
MDA-N = test system: MDA-N
SK-MEL-28 = test system: SK-MEL-28
MDA-MB-435 = test system: MDA-MB-435
RPMI-8226 = test system: RPMI-8226
SNB-19 = test system: SNB-19
LOX IMVI = test system: LOX IMVI
IGROV-1 = test system: IGROV-1
NCI-H522 = test system: NCI-H522
MCF7 = test system: MCF7
UO-31 = test system: UO-31
ACHN = test system: ACHN
SN12C = test system: SN12C
A549 = test system: A549
NCI-H460 = test system: NCI-H460
SK-MEL-2 = test system: SK-MEL-2
HCT-116 = test system: HCT-116
EKVX = test system: EKVX
OVCAR-5 = test system: OVCAR-5
SK-MEL-5 = test system: SK-MEL-5
HCT-15 = test system: HCT-15
UACC-257 = test system: UACC-257
SF-268 = test system: SF-268
NCI/ADR-RES = test system: NCI/ADR-RES
OVCAR-3 = test system: OVCAR-3
HCC 2998 = test system: HCC 2998
T47D = test system: T47D
HT-29 = test system: HT-29
MOLT-4 = test system: MOLT-4
Hs-578T = test system: Hs-578T
Malme-3M = test system: Malme-3M
RXF 393 = test system: RXF 393

With `COc1ccc(-c2coc3c4c(ccc3c2=O)OCO4)cc1OC` the GI50 (HOP-92) was 36.3 µM (inactive), the GI50 (DU-145) was > 100 µM (inactive) and the GI50 (SR) was 8.87 µM (inactive). For the same compound, the GI50 (NCI-H23) was 25 µM (inactive), the GI50 (HL-60) was 14.3 µM (inactive) and the GI50 (786-0) was 35.4 µM (inactive). For the same compound, the GI50 (CCRF-CEM) was > 100 µM (inactive), the GI50 (A498) was > 100 µM (inactive) and the GI50 (K562) was 7.6 µM (inactive). For the same compound, the GI50 (HOP-62) was 36.7 µM (inactive), the GI50 (OVCAR-4) was 22.5 µM (inactive) and the GI50 (MDA-MB-231) was 45.4 µM (inactive). For the same compound, the GI50 (KM12) was 83.6 µM (inactive), the GI50 (NCI-H226) was 76.7 µM (inactive) and the GI50 (M14) was > 100 µM (inactive). For the same compound, the GI50 (PC-3) was > 100 µM (inactive), the GI50 (SK-OV-3) was 24.4 µM (inactive) and the GI50 (TK-10) was 63 µM (inactive). For the same compound, the GI50 (UACC-62) was 44.9 µM (inactive), the GI50 (SF-539) was 40.6 µM (inactive) and the GI50 (SF-295) was 27.9 µM (inactive). The GI50 (BT-549) was 14.9 µM (inactive), the GI50 (COLO 205) was > 100 µM (inactive) and the GI50 (OVCAR-8) was 38 µM (inactive). For the same compound, the GI50 (CAKI-1) was 91.6 µM (inactive), the GI50 (SNB-75) was 38.2 µM (inactive) and the GI50 (U-251) was 37.2 µM (inactive). For the same compound, the GI50 (SW-620) was > 100 µM (inactive), the GI50 (MDA-N) was 5.79 µM (inactive) and the GI50 (SK-MEL-28) was > 100 µM (inactive). The GI50 (MDA-MB-435) was 5.87 µM (inactive), the GI50 (RPMI-8226) was > 100 µM (inactive) and the GI50 (SNB-19) was 29 µM (inactive). For the same compound, the GI50 (LOX IMVI) was 98.2 µM (inactive), the GI50 (IGROV-1) was 44.4 µM (inactive) and the GI50 (NCI-H522) was 56.9 µM (inactive). For the same compound, the GI50 (MCF7) was 91 µM (inactive), the GI50 (UO-31) was 99.8 µM (inactive) and the GI50 (ACHN) was 49.2 µM (inactive). The GI50 (SN12C) was > 100 µM (inactive), the GI50 (A549) was 55.6 µM (inactive) and the GI50 (NCI-H460) was 57.8 µM (inactive). For the same compound, the GI50 (SK-MEL-2) was 65.3 µM (inactive), the GI50 (HCT-116) was > 100 µM (inactive) and the GI50 (EKVX) was 38.5 µM (inactive). For the same compound, the GI50 (OVCAR-5) was > 100 µM (inactive), the GI50 (SK-MEL-5) was 55.5 µM (inactive) and the GI50 (HCT-15) was 18 µM. The GI50 (UACC-257) was > 100 µM (inactive), the GI50 (SF-268) was 34 µM (inactive) and the GI50 (NCI/ADR-RES) was 35.8 µM (inactive). The GI50 (OVCAR-3) was 23.8 µM (inactive), the GI50 (HCC 2998) was > 100 µM (inactive) and the GI50 (T47D) was > 100 µM (inactive). For the same compound, the GI50 (HT-29) was > 100 µM (inactive), the GI50 (MOLT-4) was > 100 µM (inactive) and the GI50 (Hs-578T) was 26.4 µM (inactive).

`COC(=O)C(N)CCCC(N)C(=O)NC(C)C(=O)NC(CCC(=O)NCCNCCNc1c2ccccc2nc2cccc([N+](=O)[O-])c12)C(N)=O` (stereo not given) was tested, and the GI50 (HOP-92) was 4.83 µM (inactive), the GI50 (DU-145) was 6.28 µM (inactive) and the GI50 (SR) was 19.7 µM (inactive). For the same compound, the GI50 (NCI-H23) was 3.03 µM (inactive), the GI50 (786-0) was 5.12 µM (inactive) and the GI50 (CCRF-CEM) was 7.59 µM (inactive). For the same compound, the GI50 (A498) was 17.4 µM (inactive), the GI50 (K562) was 3.13 µM (inactive) and the GI50 (HOP-62) was 19 µM (inactive). The GI50 (OVCAR-4) was 2.16 µM (inactive), the GI50 (MDA-MB-231) was 16.9 µM (inactive) and the GI50 (KM12) was 10.5 µM (inactive). For the same compound, the GI50 (NCI-H226) was 10.9 µM (inactive), the GI50 (M14) was 13.4 µM (inactive) and the GI50 (PC-3) was 4.79 µM (inactive). The GI50 (SK-OV-3) was 28 µM (inactive), the GI50 (TK-10) was 16.2 µM (inactive) and the GI50 (UACC-62) was 8.09 µM (inactive). For the same compound, the GI50 (SF-539) was 5.19 µM (inactive), the GI50 (SF-295) was 27.8 µM (inactive) and the GI50 (BT-549) was 16.3 µM (inactive). For the same compound, the GI50 (COLO 205) was 6.28 µM (inactive), the GI50 (OVCAR-8) was 8.79 µM (inactive) and the GI50 (CAKI-1) was 27.9 µM (inactive). The GI50 (SNB-75) was 10.4 µM (inactive), the GI50 (U-251) was 5.48 µM (inactive) and the GI50 (SW-620) was 9.86 µM (inactive). For the same compound, the GI50 (MDA-N) was 14.7 µM (inactive), the GI50 (SK-MEL-28) was 16.6 µM (inactive) and the GI50 (MDA-MB-435) was 6.93 µM (inactive). The GI50 (RPMI-8226) was 5.32 µM (inactive), the GI50 (SNB-19) was 18.5 µM (inactive) and the GI50 (LOX IMVI) was 14.7 µM (inactive). For the same compound, the GI50 (IGROV-1) was 4.6 µM (inactive), the GI50 (NCI-H522) was 1.65 µM (inactive) and the GI50 (MCF7) was 3.89 µM (inactive). For the same compound, the GI50 (UO-31) was 21.9 µM (inactive), the GI50 (ACHN) was 10.2 µM (inactive) and the GI50 (SN12C) was 12.8 µM (inactive). The GI50 (A549) was 4.67 µM (inactive), the GI50 (NCI-H460) was 3.17 µM (inactive) and the GI50 (SK-MEL-2) was 8.51 µM (inactive). For the same compound, the GI50 (HCT-116) was 4.63 µM (inactive), the GI50 (EKVX) was 10.2 µM (inactive) and the GI50 (OVCAR-5) was 35.2 µM (inactive). The GI50 (Malme-3M) was 11.3 µM (inactive), the GI50 (SK-MEL-5) was 6.92 µM (inactive) and the GI50 (HCT-15) was 14.2 µM. The GI50 (UACC-257) was 19.5 µM (inactive), the GI50 (SF-268) was 2.44 µM (inactive) and the GI50 (RXF 393) was 8.51 µM (inactive). For the same compound, the GI50 (NCI/ADR-RES) was 80.5 µM (inactive), the GI50 (OVCAR-3) was 12.3 µM (inactive) and the GI50 (HCC 2998) was 8.34 µM (inactive). The GI50 (T47D) was 5.06 µM (inactive), the GI50 (HT-29) was 13.7 µM (inactive) and the GI50 (MOLT-4) was 3.5 µM (inactive). The GI50 (Hs-578T) was 17.9 µM (inactive).
